Experimental data reported in BindingDB's records for aid1799744 (Csar, 2012).

Target: Mitogen-activated protein kinase 1 (Homo sapiens, UniProt P28482)
Experiment: Assay 1

Chain of Mitogen-activated protein kinase 1 (P28482 whole entry): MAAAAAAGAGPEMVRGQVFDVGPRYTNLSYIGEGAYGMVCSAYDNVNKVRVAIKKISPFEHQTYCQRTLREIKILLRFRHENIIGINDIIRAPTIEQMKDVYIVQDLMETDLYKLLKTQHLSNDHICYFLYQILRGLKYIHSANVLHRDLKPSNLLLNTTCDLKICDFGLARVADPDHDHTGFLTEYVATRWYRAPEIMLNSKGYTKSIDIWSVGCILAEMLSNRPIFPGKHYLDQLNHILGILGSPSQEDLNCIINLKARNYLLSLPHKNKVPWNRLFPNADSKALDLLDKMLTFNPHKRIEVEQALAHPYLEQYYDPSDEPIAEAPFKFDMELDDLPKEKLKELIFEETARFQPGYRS

| Compound | Ki [nM] |
| --- | --- |
| Cc1cnc(N)nc1-c1c[nH]c(C(=O)NCc2cccc3ccccc23)c1 [erk000037] | 603 |
| CCNc1ncc(C)c(-c2c[nH]c(C(=O)NCc3ccccc3C(F)(F)F)c2)n1 [erk000039] | 4570 |
| CNc1ncc(C)c(-c2c[nH]c(C(=O)NCc3cccc(C(F)(F)F)c3)c2)n1 [erk000042] | 468 |
| Cc1cnc(N)nc1-c1c[nH]c(C(=O)NCc2cccc(C(F)(F)F)c2)c1 [erk000043] | 562 |
| CNc1ncc(C)c(-c2c[nH]c(C(=O)NCc3ccccc3)c2)n1 [erk000045] | 776 |
| CCNc1ncc(C)c(-c2c[nH]c(C(=O)N[C@@H](CO)c3ccccc3)c2)n1 [erk000048] | 12900 |
| CNc1ncc(C)c(-c2c[nH]c(C(=O)NCc3ccc(Cl)cc3Cl)c2)n1 [erk000054] | 2000 |
| Cc1cnc(N)nc1-c1c[nH]c(C(=O)NCc2ccc(Cl)cc2Cl)c1 [erk000055] | 6760 |
| CNc1ncc(C)c(-c2c[nH]c(C(=O)NCc3ccc(F)c(F)c3)c2)n1 [erk000056] | 3720 |
| O=C(c1cc(-c2ccnc(Nc3ccccc3)n2)c[nH]1)N1CCc2ccccc2C1 [erk000057] | 525 |
| CCNc1ncc(C)c(-c2c[nH]c(C(=O)N3CCc4ccccc4C3)c2)n1 [erk000058] | 1590 |
| CN(Cc1ccccc1)C(=O)c1cc(-c2ccnc(Nc3ccccc3)n2)c[nH]1 [erk000059] | 302 |
| CCc1cnc(N)nc1-c1c[nH]c(C(=O)N[C@H](CO)c2ccccc2)c1 [erk000065] | 288 |
| Nc1nccc(-c2c[nH]c(C(=O)N[C@H](CO)c3ccccc3)c2)n1 [erk000067] | 324 |
| CCc1cnc(N)nc1-c1c[nH]c(C(=O)NCc2cccc3ccccc23)c1 [erk000070] | 1100 |
| Clc1ccc(-c2n[nH]c3c2CCCC3)cc1 [erk000071] | 5250 |
| Cc1onc(-c2ccccc2)c1-c1ccnc(NC2CCC(O)CC2)n1 (centres undefined) [erk000075] | 1000 |
| Cc1onc(-c2ccccc2)c1-c1ccn(C(=O)NC(C)C)n1 [erk000088] | 15100 |
| Cc1cnc(N)nc1-c1c[nH]c(C(=O)NCc2ccccc2)c1 [erk000103] | 832 |

| Compound | Ki [nM] |
| --- | --- |
| O=C(c1cc(-c2n[nH]cc2-c2cc(Cl)cc(Cl)c2)c[nH]1)N1CCOCC1 [erk000124] | 813 |
| Fc1ccc(-c2n[nH]cc2-c2ccnc(NC3CCCCC3)c2)cc1 [erk000125] | 2570 |
| C[S+]([O-])c1ccc(-c2nc(-c3cccc(I)c3)c(-c3ccncc3)[nH]2)cc1 (centres undefined) [erk000253] | 12900 |
| Cc1cnc(N)nc1-c1c[nH]c(C(=O)N[C@H](CO)c2ccccc2)c1 [erk000287] | 1910 |
| Cc1cnc(N)nc1-c1c[nH]c(C(=O)NCc2ccc(Cl)cc2)c1 [erk000302] | 617 |
| Cc1cnc(N)nc1-c1c[nH]c(C(=O)NCc2ccc(F)c(Cl)c2)c1 [erk000304] | 372 |
| Cc1cnc(N)nc1-c1c[nH]c(C(=O)N[C@@H](CCO)c2ccccc2)c1 [erk000305] | 1550 |
| Cc1cnc(N)nc1-c1c[nH]c(C(=O)N[C@H](CCO)c2ccccc2)c1 [erk000306] | 15800 |
| Cc1cnc(N)nc1-c1c[nH]c(C(=O)NCc2ccccc2F)c1 [erk000311] | 4790 |
| COc1ccccc1CNC(=O)c1cc(-c2nc(N)ncc2C)c[nH]1 [erk000312] | 2510 |
| Cc1cnc(N)nc1-c1cc(C(=O)NCc2ccc(F)c(Cl)c2)n(Cc2ccccc2)c1 [erk000317] | 11000 |
| Cc1cnc(N)nc1-c1cc(C(=O)N[C@H](CO)c2ccccc2)n(Cc2ccccc2)c1 [erk000319] | 3980 |
| Cc1cnc(N)nc1-c1cc(C(=O)NCc2ccc(F)c(F)c2)n(C)c1 [erk000327] | 3470 |
| CCN(CC)CCNc1ncc(C)c(-c2c[nH]c(C(=O)NCc3ccc(F)c(F)c3)c2)n1 [erk000364] | 3980 |
| Cc1cnc(Nc2nc(N3CCCCC3)nc3ccccc23)nc1-c1c[nH]c(C(=O)NCc2ccccc2)c1 [erk000377] | 2090 |
| CNc1ncc(C)c(-c2c[nH]c(C(=O)NCc3ccc(F)c(Cl)c3)c2)n1 [erk000393] | 282 |
| O=C(N[C@H](CO)c1ccccc1)c1cc(-c2nc(Nc3ccccc3)ncc2C2CC2)c[nH]1 [erk000434] | 417 |
| CCNc1ncc(C)c(-c2c[nH]c(C(=O)N[C@@H](CCO)c3ccccc3)c2)n1 [erk000459] | 501 |
| CCNc1ncc(C)c(-c2c[nH]c(C(=O)N[C@H](C(=O)OC)c3ccccc3)c2)n1 [erk000470] | 1000 |

These reach a lower Ki. Values come first.

| Ki [nM] | Compound |
| --- | --- |
| 229 | Nc1ncc(-c2cc(Cl)cc(Cl)c2)c(-c2c[nH]c(C(=O)N[C@H](CO)c3ccccc3)c2)n1 [erk000031] |
| 58 | CNc1ncc(C)c(-c2c[nH]c(C(=O)NCc3cccc4ccccc34)c2)n1 [erk000036] |
| 240 | CCNc1ncc(C)c(-c2c[nH]c(C(=O)NCc3ccc(F)c(F)c3)c2)n1 [erk000038] |
| 4 | Cc1cnc(Nc2ccccc2)nc1-c1c[nH]c(C(=O)N[C@H](CO)c2ccccc2)c1 [erk000040] |
| 3 | CCNc1ncc(C)c(-c2c[nH]c(C(=O)N[C@H](CO)c3ccccc3)c2)n1 [erk000041] |
| 59 | CNc1ncc(C)c(-c2c[nH]c(C(=O)N[C@H](CO)c3ccccc3)c2)n1 [erk000046] |
| 89 | CCNc1ncc(C)c(-c2c[nH]c(C(=O)NCc3ccccc3)c2)n1 [erk000047] |
| 269 | O=C(NCc1ccc2c(c1)OCO2)c1cc(-c2ccnc(Nc3ccccc3)n2)c[nH]1 [erk000049] |
| 120 | CCNc1ncc(CC)c(-c2c[nH]c(C(=O)N[C@H](CO)c3ccccc3)c2)n1 [erk000060] |
| 141 | CCNc1ncc(C)c(-c2c[nH]c(C(=O)NCc3cccc(C(F)(F)F)c3)c2)n1 [erk000062] |
| 141 | Cc1cnc(N)nc1-c1c[nH]c(C(=O)NCc2ccc3c(c2)OCO3)c1 [erk000066] |
| 100 | CCNc1nccc(-c2c[nH]c(C(=O)N[C@H](CO)c3ccccc3)c2)n1 [erk000068] |
| 79 | O=C(NCc1ccncc1)c1cc(-c2n[nH]cc2-c2cc(Cl)cc(Cl)c2)c[nH]1 [erk000114] |
| 251 | CCN(C)C(=O)c1cc(-c2[nH]ncc2-c2ccc(F)c(Cl)c2)c[nH]1 [erk000142] |
| 83 | O=C(N[C@H](CO)c1ccccc1)c1cc(-c2n[nH]cc2-c2cccc(C(F)(F)F)c2)c[nH]1 [erk000184] |
| 174 | CCN(CC)CCOc1ccc(Nc2ncc3cc(-c4c(Cl)cccc4Cl)c(=O)n(C)c3n2)cc1 [erk000225] |
| 21 | O=C(NCc1ccc2c(c1)CCO2)c1cc(-c2n[nH]cc2-c2cccc(Cl)c2)c[nH]1 [erk000232] |
| 191 | NCc1ccc(-c2cn[nH]c2-c2c[nH]c(C(=O)NCc3ccc4c(c3)CCO4)c2)cc1C(F)(F)F [erk000282] |
| 65 | CC1CCN(c2nc(Nc3cc(C4CC4)n[nH]3)c3ccccc3n2)CC1 [erk000284] |
| 48 | Cc1cnc(N)nc1-c1c[nH]c(C(=O)NCc2ccc(F)c(F)c2)c1 [erk000286] |
| 81 | Cc1cnc(N)nc1-c1c[nH]c(C(=O)NCc2cccc(Cl)c2)c1 [erk000303] |
| 71 | Cc1cnc(NC2CCCCC2)nc1-c1c[nH]c(C(=O)NCc2ccc(F)c(F)c2)c1 [erk000310] |
| 18 | CCOC(=O)CNCc1ccc(-c2c[nH]nc2-c2c[nH]c(C(=O)N[C@H](CO)c3ccc(F)c(Cl)c3)c2)cc1Cl [erk000391] |

| Ki [nM] | Compound |
| --- | --- |
| 68 | CNc1ncc(C)c(-c2c[nH]c(C(=O)N[C@@H](CO)c3ccc(F)c(Cl)c3)c2)n1 [erk000396] |
| 4 | Cc1cnc(Nc2ccccc2)nc1-c1c[nH]c(C(=O)N[C@@H](CO)c2ccc(F)c(Cl)c2)c1 [erk000397] |
| 25 | Cc1cnc(Nc2ccccc2)nc1-c1c[nH]c(C(=O)NCc2ccc(F)c(Cl)c2)c1 [erk000398] |
| 2 | Cc1ccc([C@@H](CO)NC(=O)c2cc(-c3nc(Nc4ccccc4)ncc3C)c[nH]2)cc1F [erk000435] |
| 6 | Cc1ccc([C@@H](CO)NC(=O)c2cc(-c3nc(Nc4cccc(F)c4)ncc3C)c[nH]2)cc1F [erk000436] |
| 2 | Cc1cnc(Nc2cccc(C(F)(F)F)c2)nc1-c1c[nH]c(C(=O)N[C@H](CO)c2ccccc2)c1 [erk000438] |
| 14 | Cc1cnc(NCc2ccccc2)nc1-c1c[nH]c(C(=O)N[C@H](CO)c2ccccc2)c1 [erk000439] |
| 28 | Cc1ccc(Nc2ncc(C)c(-c3c[nH]c(C(=O)NCc4cccc(C(F)(F)F)c4)c3)n2)cc1C [erk000440] |
| 2 | Cc1ccc(Nc2ncc(C)c(-c3c[nH]c(C(=O)N[C@H](CO)c4ccccc4)c3)n2)cc1C [erk000441] |
| 3 | Cc1cnc(Nc2ccc(OCc3ccccc3)cc2)nc1-c1c[nH]c(C(=O)N[C@H](CO)c2ccccc2)c1 [erk000442] |
| 5 | Cc1cnc(NCC(F)(F)F)nc1-c1c[nH]c(C(=O)N[C@H](CO)c2ccccc2)c1 [erk000444] |
| 1 | Cc1cnc(N[C@H](CO)c2ccccc2)nc1-c1c[nH]c(C(=O)N[C@H](CO)c2ccccc2)c1 [erk000445] |
| 68 | COc1ccccc1Nc1ncc(C)c(-c2c[nH]c(C(=O)N[C@H](CO)c3ccccc3)c2)n1 [erk000446] |
| 2 | Cc1cnc(Nc2ccc(OC(F)(F)F)cc2)nc1-c1c[nH]c(C(=O)N[C@H](CO)c2ccccc2)c1 [erk000447] |
| 3 | Cc1cnc(NCC(C)C)nc1-c1c[nH]c(C(=O)N[C@H](CO)c2ccccc2)c1 [erk000448] |
| 5 | Cc1cnc(NCC2CC2)nc1-c1c[nH]c(C(=O)N[C@H](CO)c2ccccc2)c1 [erk000453] |
| 1 | Cc1cnc(NC2(CO)CC2)nc1-c1c[nH]c(C(=O)N[C@H](CO)c2ccccc2)c1 [erk000460] |
| 17 | Cc1cnc(NCCO)nc1-c1c[nH]c(C(=O)N[C@H](CO)c2ccccc2)c1 [erk000461] |
| 14 | Cc1cnc(N[C@H](C)CO)nc1-c1c[nH]c(C(=O)N[C@H](CO)c2ccccc2)c1 [erk000462] |
| 27 | Cc1cnc(NC[C@@H](C)O)nc1-c1c[nH]c(C(=O)N[C@H](CO)c2ccccc2)c1 [erk000463] |
| 37 | Cc1cnc(NC[C@H](C)O)nc1-c1c[nH]c(C(=O)N[C@H](CO)c2ccccc2)c1 [erk000464] |
| 7 | Cc1cnc(N[C@H]2CCCC[C@H]2O)nc1-c1c[nH]c(C(=O)N[C@H](CO)c2ccccc2)c1 [erk000465] |
| 15 | Cc1cnc(N[C@@H](C)CO)nc1-c1c[nH]c(C(=O)N[C@H](CO)c2ccccc2)c1 [erk000471] |
